{"source": "patent US7763751B2", "about": "(priority 2003, dated 2010)", "key": {"β-Amyloid1-42": {"target": "T1, β-Amyloid1-42 (Homo sapiens, UniProt P05067)", "T1 construct": "Synthetic Aβ 1-42 (U.S. Peptide, Rancho Cucamonga, USA); purchased U.S. Peptide, Rancho Cucamonga, USA; host or cells: chemical synthesis", "T1 sequence (P05067 672-713 limits assumed)": "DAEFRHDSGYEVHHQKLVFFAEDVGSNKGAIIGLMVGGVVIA", "assay": "Inhibition of Aβ 1-42 spontaneous aggregation (HPLC assay)", "assay_type": "biochemical", "settings": "for pIC50: concentration able to inhibit the aggregation of the fibrils by 50%, peptide 20 μM, pH 7.4, 18 h at 37° C., read-out: β-Amyloid1-42 Anti-aggregation (HPLC assay) IC50; for potency in inhibiting the aggregation of Aβ1-42 as compared to compound (3): comparison with known compound (3); for anti-aggregating properties against Aβ1-42: in words", "description": "(§1) In our experimental conditions, the peptide monomer (anti-aggregation protocol) or already aggregated (disaggregation protocol) was incubated at 37° C., alone or in the presence of the test compound, for different time intervals, then centrifuged and both the supernatant and the pellet were analyzed by HPLC or Thioflavine T binding assay.\nInhibition of Aβ 1-42 Spontaneous Aggregation\nPreparation of the Aβ 1-42 peptide\nSynthetic Aβ 1-42 (U.S. Peptide, Rancho Cucamonga, USA) was dissolved to 220 μM in H2O/CH3CN 1:1. Aliquots of 10 μg were lyophilized under vacuum with an Eppendorf concentrator for 18 h and stored at −80° C.\nAβ 1-42 spontaneous aggregation\n10 μg of lyophilized peptide sample was dissolved at 20 μM in 20 mM potassium phosphate buffer, pH 7.4, containing 150 mM NaCl. The sample was incubated for 18 h at 37° C. After centrifugation at 13000 xg for 5 min, the pellet was dissolved in formic acid and both the pellet and the supernatant were analysed by HPLC. The extent of aggregation was determined as the percentage of peptide content in the pellet compared with the total amount."}, "α-synuclein": {"target": "T2, α-synuclein (Homo sapiens, UniProt P37840)", "T2 construct": "The synthetic peptide NAC (Bachem) was dissolved at 1 mg/ml; purchased Bachem; host or cells: chemical synthesis", "assay": "Inhibition of NAC (α-synuclein) spontaneous aggregation (HPLC assay)", "assay_type": "biochemical", "settings": "for potency in inhibiting the aggregation of α-synuclein as compared to compound (3): comparison with known compound (3); for anti-aggregating properties against α-synuclein: in words", "description": "as §1\nInhibition of Non Aβ Component of Alzheimer's Disease Amyloid (NAC, α-synuclein) Spontaneous Aggregation\nPreparation of the NAC peptide\nThe synthetic peptide NAC (Bachem) was dissolved at 1 mg/ml in H2O/CH3CN 1:1 plus 5% TFA. Aliquots of 40 μg were lyophilized under vacuum for 18 h and stored at −80° C.\nNAC spontaneous aggregation\n40 μg of lyophilized peptide sample was dissolved at 500 μM in 20 mM potassium phosphate buffer, pH 7.4, containing 150 mM NaCl. The sample was incubated for 24 h at 37° C. After centrifugation at 13000 xg for 5 min, the pellet was dissolved in formic acid and both pellet and supernatant were analyzed by HPLC. The extent of aggregation was determined as the percentage of peptide content in the pellet compared to the total amount used."}}, "note": "pIC50: −log10 of the molar value. Like-named read-outs stand apart in the source and are kept apart here."}
{"smiles": "CCCN(CCC)[C@@H]1Cc2c(O)ccc(O)c2C[C@H]1C", "note": "(relative stereo) [Compound 3, trans-N-(5,8-hydroxy-3-methyl-1,2,3,4-tetrahydro-naphtalene-2yl)-N,N-dipropyl-amine, reference compound]", "values": [{"measurement": "pIC50", "setting": "β-Amyloid1-42", "result": 4.22}, {"measurement": "pIC50", "setting": "α-synuclein; NAC peptide 500 μM, pH 7.4, 24 h at 37° C., read-out: α-synuclein Anti-aggregation (HPLC assay) IC50", "result": 3.06}]}
{"smiles": "CONC(C)Cc1ccc(O)c(O)c1", "note": "(centres unmarked) [Compound 1, N-(1-methyl-2-(3,4-dihydroxy-phenyl)-ethyl)-O-methyl-hydroxylamine]", "values": [{"measurement": "potency in inhibiting the aggregation of Aβ1-42 as compared to compound (3)", "setting": "β-Amyloid1-42", "result": "more potent"}, {"measurement": "pIC50", "setting": "β-Amyloid1-42", "result": 4.82}, {"measurement": "anti-aggregating properties against Aβ1-42", "setting": "β-Amyloid1-42", "result": "significant anti-aggregating properties"}, {"measurement": "pIC50", "setting": "α-synuclein", "result": 3.65}, {"measurement": "potency in inhibiting the aggregation of α-synuclein as compared to compound (3)", "setting": "α-synuclein", "result": "more potent"}, {"measurement": "anti-aggregating properties against α-synuclein", "setting": "α-synuclein", "result": "significant anti-aggregating properties"}]}
{"smiles": "CCCN(OCC)C1CCc2c(ccc(O)c2O)C1", "note": "(centres unmarked) [Compound 2, N-(5,6-dihydroxy-1,2,3,4-tetrahydro-naphthalene-2-yl)-N-propyl-O-ethyl-hydroxylamine]", "values": [{"measurement": "potency in inhibiting the aggregation of Aβ1-42 as compared to compound (3)", "setting": "β-Amyloid1-42", "result": "significantly more potent"}, {"measurement": "pIC50", "setting": "β-Amyloid1-42", "result": 5.22}, {"measurement": "anti-aggregating properties against Aβ1-42", "setting": "β-Amyloid1-42", "result": "significant anti-aggregating properties"}, {"measurement": "pIC50", "setting": "α-synuclein", "result": 4.46}, {"measurement": "potency in inhibiting the aggregation of α-synuclein as compared to compound (3)", "setting": "α-synuclein", "result": "significantly more potent"}, {"measurement": "anti-aggregating properties against α-synuclein", "setting": "α-synuclein", "result": "significant anti-aggregating properties"}]}
